Measured values as given in PMC11229374, “Unlocking the potential of protein-derived peptides to target G-quadruplex DNA: from recognition to anticancer activity” (Nucleic Acids Research, 2024).
*: point of attachment. FITC = O=C1OC2(c3ccc(O)cc3Oc3cc(O)ccc32)c2ccc(NC(=S)*)cc21; AEEA = NCCOCCOCC(=O)O

Experiments:
c-KIT2 G4 [1] = assay: CD melting, thermal stabilization of c-KIT2 G4; type: binding, human; conditions: for ΔT1/2 of c-KIT2 G4: CD melting at 264 nm, 2 mol equiv of peptide with respect to G4, 2 μM DNA, 5 mM KH2PO4/K2HPO4 pH 7.0, 20 mM KCl, average of three, T1/2 c-KIT2 alone 59.5°C; for ΔΔT1/2, change in c-KIT2 G4-stabilizing properties with respect to Myb^397–415: CD melting, 2 mol equiv peptide, difference to Myb^397–415
Text: The buffer baseline was subtracted from each spectrum.

c-KIT2 G4 [2] = assay: Microscale thermophoresis (MST) binding to c-KIT2 G4; design: species or system human; conditions: 25°C, 20 nM FITC-labelled peptide, DNA serial dilution, 5 mM KH2PO4/K2HPO4 pH 7.0, 20 mM KCl, 0.1% Tween, 5% DMSO
Experimental: MST experiments were conducted using a Monolith NT.115 instrument (NanoTemper Technologies, Munich, Germany) at 25°C with medium MST power settings. […] DNA samples were also diluted using the same buffer supplemented with 0.1% Tween. During MST experiments, the concentration of the labelled peptide was kept constant at 20 nM, while a serial dilution of the investigated DNA molecules (ranging from 10 or 20 μM) was prepared and mixed with the peptide solution in a 1:1 volume ratio. All the samples, with a final concentration of 5% DMSO, were loaded into standard capillaries (NanoTemper Technologies) for MST measurements. Data analysis was carried out using the MO.Affinity Analysis (v2.3) software provided with the instrument.

c-KIT2 G4 [3] = assay: Isothermal titration calorimetry (ITC) with c-KIT2 G4; type: binding, human; conditions: ITC at 25°C, triplicate; for Ka: c-KIT2 G4 16–20 μM, peptide 280–400 μM, 5 mM KH2PO4/K2HPO4, 20 mM KCl, pH 7.0; for Kd: c-KIT2 G4, Kd = 1/Ka
Experimental: ITC experiments were conducted at 25°C using a nano-ITC Low Volume calorimeter (TA instruments, Lindon, UT, USA). DNA and peptide solutions were prepared using the same batch of buffer (5 mM KH2PO4/K2HPO4 buffer containing 20 mM KCl, pH 7.0) to prevent differences in buffer composition and pH. Each titration consisted of 25 injections of a 2 μl peptide solution (280–400 μM) sequentially injected using a computer-controlled 50 μl syringe, into the calorimetric vessel (190 μl) containing the oligonucleotide (16–20 μM). A spacing of 300 s between each injection was applied to allow the system to reach the equilibrium. The heat generated by peptide dilution was assessed in a control experiment by injecting the peptide solution into the buffer (Supplementary Figure S30). All measurements were performed in triplicate. Subsequently, the interaction heat for each injection was calculated considering the correction for the heat of peptide dilution. The corrected heat values were plotted as a function of the molar ratio to provide binding isotherms. The isotherms were fitted with a multiple-sites binding model using the NanoAnalyze software (TA instruments) provided with the instrument. This analysis provided the equilibrium binding constant (Ka), binding enthalpy (ΔH°), and stoichiometry of interaction (n). The equilibrium dissociation constant (Kd), Gibbs free-energy change and entropy change were determined using the following relationships: Kd = 1/Ka, ΔG° = -RT ln Ka (R = 8.314 J mol^−1 K^−1, T = 298.15 K), and TΔS° = ΔH° – ΔG°.

U2OS cells = assay: Viability assay (crystal violet), U2OS; type: cell-based; conditions: for Impact on cancer cell viability, peptides in native form: unconjugated peptides
Experimental: U2OS, HCT116 and MDA-MB-231 cells were purchased from the ATCC and grown in Dulbecco modified Eagle's medium (DMEM; EuroClone, Milan, Italy; ECM0728L) supplemented with 10% Fetal Bovine Serum (FBS, ThermoFisher Scientific/Gibco, Waltham, MA, USA; 10270-106), 2 mM L-glutamine and antibiotics in a humidified incubator at 37°C with 5% CO2 and atmospheric O2 concentration. Cell lines were authenticated and tested to be mycoplasma-free.
U2OS, HCT116, and MDA-MB-231 cells were seeded in 24-well plates at a density of 1 × 10^4, 20 × 10^3 and 12 × 10^3 for each well, respectively. After 24 h, cells were treated with the indicated peptides and incubated at 37°C for additional 72 h. Upon treatment completion, cell medium was removed, the wells were washed twice in phosphate-buffered saline (PBS) and fixed with 4% formaldehyde for 15 min at room temperature (RT). After washing, 500 μl of crystal violet staining solution (Sigma-Aldrich, St. Louis, MO, USA) was added to each well and incubated for 30 min at RT. Finally, the plates were rinsed twice with water, air-dried and cell pellets were dissolved in 400 μl of a 10% aqueous solution of acetic acid. In total, 200 μl of each sample was transferred to a 96-well plate, and the optical density was measured at 570 nm (OD570) with an ELISA reader (Thermo Scientific, Waltham, MA, USA). The average absorbance in each condition was used to calculate the viability expressed as a percentage of treated vs untreated conditions (CTR).

FITC-Myb397-415 [4] = target: T1, FITC-Myb397-415 (UniProt P11938); assay: MST; conditions: 2'-F-ANA-guanosine at bold G; positions lost in the text; 5 mM KH2PO4/K2HPO4 pH 7.0, 20 mM KCl (LiCl for c-MYC stock), 25 C; MST with 0.1% Tween and 5% DMSO, 20 nM FITC-peptide
T1 sequence: NHTGNSIRHRFRVYLSKRL

FITC-Myb397-415 [5] = target: T2, FITC-Myb397-415 (UniProt P11938 397-415); assay: microscale thermophoresis; 5 mM KH2PO4/K2HPO4, 20 mM KCl (c-MYC stock annealed in LiCl), pH 7.0; MST 25 C with 0.1% Tween, 5% DMSO, 20 nM labelled peptide, DNA titrated (stocks from 10 or 20 uM, mixed 1:1); ITC 25 C; conditions: tags: N-terminal FITC-O2Oc, C-terminal NH2
T2 chain: {FITC-AEEA}-NHTGNSIRHRFRVYLSKRL-NH2

FITC-Myb397-415 [6] = target: T2, FITC-Myb397-415; assay: MST; 20 mM K+; 5 mM KH2PO4/K2HPO4 pH 7.0, 20 mM KCl (LiCl for c-MYC stock), 25 C; MST with 0.1% Tween and 5% DMSO, 20 nM FITC-peptide; conditions: hybrid G4
Myb397-415 = target: T3, Myb397-415 (UniProt P11938 397-415); assay: isothermal titration calorimetry; 5 mM KH2PO4/K2HPO4, 20 mM KCl (c-MYC stock annealed in LiCl), pH 7.0; MST 25 C with 0.1% Tween, 5% DMSO, 20 nM labelled peptide, DNA titrated (stocks from 10 or 20 uM, mixed 1:1); ITC 25 C; conditions: tags: N-acetyl; C-terminal NH2; chain copies: 3; parallel G4
T3 chain: NHTGNSIRHRFRVYLSKRL

AHTGNSIRHRFRVYLSKRL [Myb^A397]
ΔT1/2 of c-KIT2 G4 (c-KIT2 G4 [1]): 18.0 (±0.2) °C

Ac-NHTANSIRHRFRVYLSKRL-NH2 [Myb^A400]
Kd (c-KIT2 G4 [2]): ~170 nM
Ka (c-KIT2 G4 [3]): 7.3 (±1.3) ×10^6 M^−1
Kd (c-KIT2 G4 [3]): 137 nM
Impact on cancer cell viability, peptides in native form (U2OS cells; 72 h treatment): unable to significantly impact cancer cells viability
ΔT1/2 of c-KIT2 G4 (c-KIT2 G4 [1]): 21.1 (±0.4) °C
ΔΔT1/2, change in c-KIT2 G4-stabilizing properties with respect to Myb^397–415 (c-KIT2 G4 [1]): 3.8 °C

Ac-NHTGNSIRHRFRVYLAKRL-NH2 [Myb^A412]
Kd (c-KIT2 G4 [2]): ~130 nM
Ka (c-KIT2 G4 [3]): 5.3 (±0.8) ×10^6 M^−1
Kd (c-KIT2 G4 [3]): 187 nM
Impact on cancer cell viability, peptides in native form (U2OS cells; 72 h treatment): unable to significantly impact cancer cells viability
ΔT1/2 of c-KIT2 G4 (c-KIT2 G4 [1]): 23.3 (±0.2) °C
ΔΔT1/2, change in c-KIT2 G4-stabilizing properties with respect to Myb^397–415 (c-KIT2 G4 [1]): 6.0 °C

NATGNSIRHRFRVYLSKRL [Myb^A398]
ΔT1/2 of c-KIT2 G4 (c-KIT2 G4 [1]): 19.8 (±0.2) °C

NHAGNSIRHRFRVYLSKRL [Myb^A399]
ΔT1/2 of c-KIT2 G4 (c-KIT2 G4 [1]): 18.5 (±0.2) °C

NHTGASIRHRFRVYLSKRL [Myb^A401]
ΔT1/2 of c-KIT2 G4 (c-KIT2 G4 [1]): 19.7 (±0.2) °C

NHTGNAIRHRFRVYLSKRL [Myb^A402]
ΔT1/2 of c-KIT2 G4 (c-KIT2 G4 [1]): 18.5 (±0.2) °C

NHTGNSARHRFRVYLSKRL [Myb^A403]
ΔT1/2 of c-KIT2 G4 (c-KIT2 G4 [1]): 17.7 (±0.2) °C

NHTGNSIAHRFRVYLSKRL [Myb^A404]
ΔT1/2 of c-KIT2 G4 (c-KIT2 G4 [1]): 16.6 (±0.2) °C

NHTGNSIRARFRVYLSKRL [Myb^A405]
ΔT1/2 of c-KIT2 G4 (c-KIT2 G4 [1]): 16.0 (±0.2) °C

NHTGNSIRHAFRVYLSKRL [Myb^A406]
ΔT1/2 of c-KIT2 G4 (c-KIT2 G4 [1]): 12.1 (±0.3) °C

NHTGNSIRHRARVYLSKRL [Myb^A407]
ΔT1/2 of c-KIT2 G4 (c-KIT2 G4 [1]): 17.8 (±0.2) °C

NHTGNSIRHRFAVYLSKRL [Myb^A408]
ΔT1/2 of c-KIT2 G4 (c-KIT2 G4 [1]): 14.0 (±0.6) °C

NHTGNSIRHRFRAYLSKRL [Myb^A409]
ΔT1/2 of c-KIT2 G4 (c-KIT2 G4 [1]): 14.7 (±0.6) °C

NHTGNSIRHRFRVALSKRL [Myb^A410]
ΔT1/2 of c-KIT2 G4 (c-KIT2 G4 [1]): 13.6 (±0.2) °C

NHTGNSIRHRFRVYASKRL [Myb^A411]
ΔT1/2 of c-KIT2 G4 (c-KIT2 G4 [1]): 19.5 (±0.4) °C

NHTGNSIRHRFRVYLSARL [Myb^A413]
ΔT1/2 of c-KIT2 G4 (c-KIT2 G4 [1]): 10.7 (±0.6) °C

NHTGNSIRHRFRVYLSKAL [Myb^A414]
ΔT1/2 of c-KIT2 G4 (c-KIT2 G4 [1]): 10.7 (±0.6) °C

NHTGNSIRHRFRVYLSKRA [Myb^A415]
ΔT1/2 of c-KIT2 G4 (c-KIT2 G4 [1]): 17.8 (±0.5) °C

RRRRRRRW-GG-NHTGNSIRHRFRVYLAKRL [R7W-Myb^A412, Myb^A412 N-terminally conjugated to the cell-penetrating peptide R7W via a glycine–glycine spacer]
Inhibition of tumour cell growth compared with the other R7W-conjugated peptides (U2OS cells; 72 h, at the 5 μM concentration): slightly more effective than the others
Inhibition of tumour cell growth, R7W-conjugated peptides (U2OS cells; 72 h treatment): essentially to the same extent as R7W-Myb^397–415

RRWWRRWRR-GG-NHTGNSIRHRFRVYLSKRL [R6W3-Myb^397–415]
IC50 (U2OS cells; 72 h treatment, read-out: IC50 (concentration of drug capable of killing 50% of cells)): ~10000 nM

TAGGGTTAGGGTTAGGGTTAGGG [HT-FANA]
Kd (FITC-Myb397-415 [4]): 140 nM

AGGGAGGGCGCTGGGAGGAGGG (structured_DNA) [c-KIT1]
Kd (FITC-Myb397-415 [5]; parallel G4): 340 ± 44 nM

GGGTTTGGGTTTTGGGAGGG (structured_DNA) [LWDLN1]
binding result (FITC-Myb397-415 [5]; antiparallel G4): no binding

TTAGGGTTAGGGTTAGGGTTAGGGTT (structured_DNA) [HT2]
Kd (FITC-Myb397-415 [5]; hybrid G4): 1180 ± 90 nM
Kd (FITC-Myb397-415 [6]): 1180 ± 90 nM

GGGCGCGGGAGGAATTGGGCGGG (structured_DNA) [BCL-2]
Kd (FITC-Myb397-415 [5]; hybrid G4): 280 ± 42 nM

TGAGGGTGGGTAGGGTGGGTAA (structured_DNA) [c-MYC]
Kd (FITC-Myb397-415 [5]; parallel G4): 430 ± 100 nM

TCGGGTTGCGGGCGCAGGGCACGGGCG (structured_DNA) [HRAS1]
binding result (FITC-Myb397-415 [5]; antiparallel G4): no binding

GGGTACCCGGGTGAGGTGCGGGGT (structured_DNA) [VEGFR-17T]
binding result (FITC-Myb397-415 [5]; hybrid (mixed parallel/antiparallel) G4): no binding

GGAGAAGGAGGAGGTGGAGGAGGAGGG (structured_DNA) [HER2]
Kd (FITC-Myb397-415 [5]; parallel G4): 130 ± 20 nM
Kd (Myb397-415): 100 ± 10 nM

B1: ds12 (dsDNA)
DNA 1: CGCGAATTCGCG
DNA 2: CGCGAATTCGCG
binding result (FITC-Myb397-415 [5]; blunt, self-complementary): no binding

TTGGGTTAGGGTTAGGGTTAGGGA (structured_DNA) [HT1]
Kd (FITC-Myb397-415 [5]; hybrid G4): 900 ± 140 nM
Kd (FITC-Myb397-415 [6]): 900 ± 140 nM
